Earlier results in US7704724B1 (priority 2006, dated 2010).

Key:
[1] = biological target: urease from Klebsiella aerogenes (Klebsiella aerogenes, UniProt P18314); details: read-out: fluoride inhibition constant (Ki)
Jack Bean urease = Jack Bean urease (Canavalia ensiformis, UniProt P07374); details: read-out: fluoride inhibition constant (Ki)
Chain of Jack Bean urease (P07374 whole entry, looked up): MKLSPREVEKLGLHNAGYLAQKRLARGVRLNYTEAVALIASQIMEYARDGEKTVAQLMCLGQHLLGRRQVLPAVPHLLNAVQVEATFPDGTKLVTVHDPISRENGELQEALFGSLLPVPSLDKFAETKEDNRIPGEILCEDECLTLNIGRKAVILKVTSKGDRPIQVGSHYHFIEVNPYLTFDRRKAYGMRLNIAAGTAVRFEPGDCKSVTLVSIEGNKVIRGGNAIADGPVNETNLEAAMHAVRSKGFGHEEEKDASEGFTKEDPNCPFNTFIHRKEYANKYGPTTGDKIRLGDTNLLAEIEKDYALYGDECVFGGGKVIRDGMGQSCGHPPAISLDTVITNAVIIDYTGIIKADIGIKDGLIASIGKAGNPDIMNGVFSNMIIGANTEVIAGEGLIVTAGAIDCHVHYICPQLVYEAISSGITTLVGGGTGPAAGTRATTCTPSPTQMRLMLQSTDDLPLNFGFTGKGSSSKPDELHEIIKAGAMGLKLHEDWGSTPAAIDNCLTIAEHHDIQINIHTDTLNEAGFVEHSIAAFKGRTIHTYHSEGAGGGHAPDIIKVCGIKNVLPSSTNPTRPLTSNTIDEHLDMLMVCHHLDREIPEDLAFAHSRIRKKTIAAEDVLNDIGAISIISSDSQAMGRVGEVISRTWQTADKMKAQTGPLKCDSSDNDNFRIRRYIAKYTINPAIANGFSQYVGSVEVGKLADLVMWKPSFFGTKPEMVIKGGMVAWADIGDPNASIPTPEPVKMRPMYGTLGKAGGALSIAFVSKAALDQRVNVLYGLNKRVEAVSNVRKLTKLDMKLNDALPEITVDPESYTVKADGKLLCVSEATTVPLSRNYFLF

Chain of urease from Klebsiella aerogenes (P18314 whole entry): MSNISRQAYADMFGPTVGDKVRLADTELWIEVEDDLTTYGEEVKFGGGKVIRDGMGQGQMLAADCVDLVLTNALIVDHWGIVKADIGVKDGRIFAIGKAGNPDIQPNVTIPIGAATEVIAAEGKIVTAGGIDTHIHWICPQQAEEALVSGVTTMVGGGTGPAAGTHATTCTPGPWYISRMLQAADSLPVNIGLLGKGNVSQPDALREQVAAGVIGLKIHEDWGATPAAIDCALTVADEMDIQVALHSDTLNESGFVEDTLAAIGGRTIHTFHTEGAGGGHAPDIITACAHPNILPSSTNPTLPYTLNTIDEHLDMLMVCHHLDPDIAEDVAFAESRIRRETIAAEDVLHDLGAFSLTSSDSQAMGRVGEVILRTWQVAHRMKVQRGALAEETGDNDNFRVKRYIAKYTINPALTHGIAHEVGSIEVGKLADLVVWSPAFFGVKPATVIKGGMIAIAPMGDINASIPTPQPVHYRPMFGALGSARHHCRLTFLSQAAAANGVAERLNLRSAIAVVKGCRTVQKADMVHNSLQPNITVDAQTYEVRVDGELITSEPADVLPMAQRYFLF
Chain of urease from Klebsiella aerogenes (P18315 whole entry partner): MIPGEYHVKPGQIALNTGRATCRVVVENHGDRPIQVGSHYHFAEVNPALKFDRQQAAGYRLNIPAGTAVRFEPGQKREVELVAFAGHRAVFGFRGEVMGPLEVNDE
Chain of urease from Klebsiella aerogenes (P18316 whole entry partner): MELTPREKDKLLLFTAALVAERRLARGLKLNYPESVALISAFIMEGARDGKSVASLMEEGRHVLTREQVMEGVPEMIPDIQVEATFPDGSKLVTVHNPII

Question: Which Ki [1] does the source give for `F` [fluoride] here?
Answer: 200 µM

Question: What about the Ki (Jack Bean urease) of the same molecule?
Answer: 1000 µM
